Laboratory results taken from US20240058265A1, “TREATMENT OF OCULAR DISEASES USING ENDOTHELIN RECEPTOR ANTAGONISTS” (Perfuse Therapeutics, Inc., priority 2021, published 2024).
Where “and” joins values, the source holds several entries; their conditions need not be identical. Equal entries are not always repeated. Where two headings read alike, the source gives them in different places.

How the values were obtained:
[1] = Solubility (pH 2, pH 7, ethyl acetate); type: physicochemical
Text: (§1) In the above table, the physicochemical data, e.g., solubility, were obtained following standard protocols known in the field (see, e.g., Reis et al., Mini Rev Med Chem., 2010, 10(11):1071-6; Avdeef et al., Expert Opin Drug Metab Toxicol., 2005, 1(2):325-42; Bharate et al., Comb Chem High Throughput Screen., 2016, 19(6):461-9; and Jain et al., J Pharm Biomed Anal., 2013, 86:11-35.); and the biochemical data, i.e., potency for ETA/ETB, were obtained following the protocols known in the field (see, e.g., Kirkby et al., Br J Pharmacol., 2008, 153(6):1105-19; and Maguire et al., Br J Pharmacol., 2014, 171(24):5555-72.).

elevated IOP rat eye = experiment: Morrison's rat model of glaucoma (RGC counts, PERG); type: in vivo, Brown Norway rats; details: topical eye drops 100 μg per dose, five days a week, four weeks
Text: Adult male and female retired breeder Brown Norway rats (approximate age groups of 8 to 11 months) were obtained from Envigo (Indianapolis, IN). Baseline IOP measurements and pattern electroretinogram (PERG) amplitudes were collected prior to the surgery for elevation of IOP (to ensure that the IOP and PERG amplitudes were in the expected range of values). IOP was elevated in one eye (left eye) of the rats, while the corresponding right eyes served as contralateral controls. The Morrison method to elevate IOP in rats was carried out by injection of 50 μL of hypertonic saline through the episcleral veins to sclerose the trabecular meshwork. IOP was measured twice a week throughout the entire duration of the experiment. […] After detecting an elevation of IOP for two consecutive days, topical administration of eye drops ([…] (100 μg,) per dose of the tested compounds in the IOP elevated eye) was commenced and carried out for five days a week for a total of four weeks. In the 4th week of treatment, PERG analysis was carried out and rats were sacrificed by an overdose of pentobarbital (fatal-Plus). Aqueous humor was collected from the rat eyes, frozen and shipped for analysis. Retinal flat mounts were prepared, immunostained with the RGC marker, Brn3a antibody and surviving RG-Cs were counted in two eccentricities (central and peripheral).
For this study, the Morrison's model was used to induce ocular hypertension in adult male retired breeder Brown Norway rats as previously described by. Morrison et al., (Morrison J C, Moore C G, Deppmeier L M, Gold B G, Meshul C K, Johnson E C. A rat model of chronic pressure-induced optic nerve damage. Exp Eye Res. 1997;64(1):85-96).
The immunostained retinal flat mounts were obtained to measure the retinal ganglion cell (RGC) counts. To obtain immunostained retinal flat mounts, the animals were euthanized after the treatments and then their eyes were enucleated. The eye cups were fixed overnight at 4° C. in 4% paraformaldehyde (PFA) and retinal flat mounts were prepared for collecting images. The retinal ganglion cell (RGC) counting was conducted using the images of immunostained retinal flat mounts. The images were uploaded to ImageJ, a photo editor designed for biology research (Rasband, 1997-2018) and the labeled retinal ganglion cells were counted manually in two eccentricities (central and peripheral).
Pattern ERG (PERG) was used to assess the RGC function. […] Briefly, PERG signals were acquired from a DTL-plus electrode placed on the lower part of the corneal surface and the PERG waves were analyzed using the EMWIN software (LKC). The difference between the amplitude of the major positive (P1) and negative (N2) waves were calculated to decipher the PERG amplitude.

ETA receptor = biological target: T1, ETA receptor (Homo sapiens, UniProt P25101); experiment: Functional potency for ETA receptor; type: biochemical
T1 sequence (P25101 21-427): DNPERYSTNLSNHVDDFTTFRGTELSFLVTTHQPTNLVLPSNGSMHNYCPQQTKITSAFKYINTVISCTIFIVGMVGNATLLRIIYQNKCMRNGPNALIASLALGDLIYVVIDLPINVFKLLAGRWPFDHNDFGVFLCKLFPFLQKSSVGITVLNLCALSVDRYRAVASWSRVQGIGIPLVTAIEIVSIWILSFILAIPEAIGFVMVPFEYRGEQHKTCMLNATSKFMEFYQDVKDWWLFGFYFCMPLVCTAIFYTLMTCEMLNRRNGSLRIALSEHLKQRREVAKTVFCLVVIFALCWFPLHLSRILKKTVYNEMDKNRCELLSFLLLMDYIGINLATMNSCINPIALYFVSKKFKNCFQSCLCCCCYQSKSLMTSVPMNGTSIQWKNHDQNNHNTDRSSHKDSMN
Text: as §1

[2] = Pharmacokinetics after topical administration in the rabbit; type: in vivo, Dutch-belted rabbits; details: single topical eye drop 100 μg, 10 minutes, 2 and 7 hours
Experimental: To determine the pharmacokinetic properties of Edonentan following topical administration in the rabbit, rabbits (Dutch-belted rabbits) received an eye drop in both eyes (100 μg of Edonentan, 35 μL dose volume/eye). After the administrations, the animals (N=2) were euthanized at different time points (e.g. 10 minutes (immediately after pot-dose), 2 and 7 hours) and tissues were collected for analysis. List of tissues collected include plasma, retina, vitreous humor and bulbar conjunctiva.

[3] = Pharmacokinetics after topical or oral administration in the rat; type: in vivo, Brown Norway rats
Experimental: After the administrations, the animals (N=2) were euthanized at different time points (e.g. 4 and 8 hours) and tissues were collected for analysis. List of tissues collected include plasma, retina/retinal pigment epithelium (RPE)/choroid, vitreous humor and aqueous humor.

Permeability (PAMPA) = type: in vitro ADME
Text: as §1

Cc1onc(NS(=O)(=O)c2ccccc2-c2ccc(-c3ncco3)cc2CN(C)C(=O)CC(C)(C)C)c1C [Edonentan, N-[[2′-[[(4,5-dimethyl-3-isoxazolyl)amino]sulfonyl]-4-(2-oxazolyl)[1,1′-biphenyl]-2-yl]methyl]-N,3,3-trimethylbutanamide]
Solubility in Ethyl Acetate (rating) ([1]; ethyl acetate): Good
solubility ([1]; ethyl acetate, organic solvent or mixture, read-out: Solubility in Ethyl Acetate): > 8900 µg/mL and > 16800 µM
solubility ([1]; pH 2, simulated gastric fluid, read-out: Solubility at pH 2): < 0.54 µg/mL and < 1 µM
Solubility at pH 7 ([1]; pH 7, amorphous form): 607 μM
RGC function (PERG) (elevated IOP rat eye): maintained RGC function
RGC loss (RGC counts, retinal flat mounts) (elevated IOP rat eye): prevented RGC loss
Functional potency for ETA and ETB receptors (rating) (ETA receptor): High potency
Specificity ETA vs ETB (rating) (ETA receptor): High specificity
Detection in plasma, retina, vitreous humor and bulbar conjunctiva [2]: detected in all tissues examined at all timepoints
Detection in aqueous humor after oral administration ([3]; oral, 17 mg/kg): detectable
Detection in retina/RPE/choroid and vitreous humor after oral administration ([3]; oral, 1.7 and 17 mg/kg): detectable
Detection in retina/RPE/choroid, aqueous humor and vitreous humor ([3]; topical eye drop 100 μg, 4 and 8 hours): detected
Permeability (rating) (Permeability (PAMPA)): Mid-High
